Results: patent publication US20190365745A1, “USE OF CHRONIC TREATMENT WITH ATR INHIBITORS TO SENSITIZE CANCER CELLS TO PARP INHIBITORS” (Cornell University, priority 2018, published 2019)

Experiments:
Type in all cases: cell-based, Human
[1] = system: U2OS cells; assay: Cycloheximide protein stability western blot; conditions: CHX 50 μg/ml with 5 μM ATRi vs CHX alone
Procedure: Fresh media containing CHX or CHX/ATRi was added every 6 hours. The right panel is a bar graph generated by measuring the intensity of the BRCA1 band from three independent experiments. Two-tailed Student's t-test was used for the statistics (Error bars=SD, N=3, ****P-value<0.0001).
(§1) Cells were harvested and lysed in modified radioimmunoprecipitation assay (RIPA) buffer (50 mM Tris-HCl pH 7.5, 150 mM NaCl, 1% tergitol, 0.25% sodium deoxycholate, 5 mM EDTA) supplemented with Complete EDTA-free protease inhibitor cocktail (Roche), 1 mM PMSF, 5 mM sodium fluoride, 10 mM β-glycerol-phosphate and 0.4 mM sodium orthovanadate. Whole cell lysates were cleared with 5 minute centrifugation at 13,000 rpm at 4° C. and mixed with 3×SDS sample buffer (bromophenol blue, stacking gel buffer, 50% glycerol, 3% SDS and 60 mM DTT). After being resolved on SDS-PAGE gels, proteins were then transferred onto polyvinylidene difluoride (PVDF) membranes and detected with designated antibodies.

[2] = system: hTERT RPE-1 cells; assay: Immunoblotting of HR factor abundance; conditions: 5 μM ATRi, 8 days
Procedure: (§2) FIGS. 14A-14B show WB analysis of hTERT RPE-1 (FIG. 14A) or HCT116 (colon cancer)(FIG. 14B) cells after 8 day chronic treatment with 5 μM ATRi or ATMi. […] FIGS. 14D-14E are bar graphs showing the analysis of HR-mediated repair using the DR-GFP system. Relative fold change of GFP positive hTERT RPE-1 (FIG. 14D) or HCT116 (FIG. 14E) cells over DMSO after ATRi treatment. (Error bars=SEM, N≥3, ****P-value<0.0001; one sample-t-test was used for the statistical analysis comparing 2 days versus 8 days of treatment).
(§3) Human U2OS, HCT116, hTERT RPE-1, HEK293T, HeLa, U87, T98G, A2780, and human skin fibroblast cells (GM08398 and GM18366) were grown in DMEM media supplemented with 10% bovine calf serum, penicillin/streptomycin and non-essential amino acids. […]
as §1, with “Whole cell lysates were cleared with 5 minute centrifugation at 13,000 rpm at 4° C. and mixed with 3×SDS sample buffer (bromophenol blue, stacking gel buffer, 50% glycerol, 3% SDS and 60 mM DTT).” left out

[3] = system: U2OS cells; assay: DR-GFP assay of HR-mediated repair
Procedure: (§4) Human U2OS, HCT116, hTERT RPE-1, HEK293T, HeLa, U87, T98G, A2780, and human skin fibroblast cells (GM08398 and GM18366) were grown in DMEM media supplemented with 10% bovine calf serum, penicillin/streptomycin and non-essential amino acids. SV40 large T antigen transformed hTERT RPE-1 cells were generated by infecting hTERT RPE-1 cells with a SV40 large T antigen (SV40 LT)-expressing retrovirus and were selected using 500 μg/ml G418. The stable SV40 large T antigen transformed hTERT RPE-1 cell line was then maintained in culture media supplemented 500 μg/ml G418. For chronic treatment with ATR inhibitor (ATRi, VE-821) or ATM inhibitor (ATMi, KU-55933), cells were maintained in media with 5 μM ATR or ATM inhibitor respectively for 8 days before cells were subjected to western blot analysis, proteomic analysis, DR-GFP/EJ5-GFP assay or immunofluorescent staining. For CHK1 inhibitor (UCN-01), cells were treated for 5 days with 0.2 μM of inhibitor before the analysis. Primary human fibroblast cells from control subjects (GM08398) and patients with Seckel syndrome (GM18366, ATR-defective) were obtained from Coriell Institute for Medical Research, Camden, N.J.
For the DR-GFP assay, cells (U2OS, HCT116, hTERT RPE-1, HEK293T, HeLa, U87, T98G, A2780, 293-T-REX-E2F6 cells and SV40 large T antigen transformed hTERT RPE-1) were transfected with the mCherry plasmid or DR-GFP reporter plasmid (pDR-GFP; addgene plasmid 26475) together with a plasmid coding for I-SceI (pCBASceI; addgene plasmid 26477) or DR-GFP reporter plasmid together with an empty plasmid pCAGGS. Two days after transfection, cells were trypsinized, resuspended in PBS and then analyzed by flow cytometry using FACSAria Fusion or Accuri C6 cytometer (BD). In each experiment, the percentage of GFP-positive cells from the sample transfected with empty plasmid pCAGGS was subtracted from the percentage of GFP-positive cells in the sample transfected with I-SceI. The GFP percentage was then normalized by the mCherry transfection efficiency. Each graph was plotted based on at least 3 independent experiments showing mean±SEM (N≥3). For the EJ5-GFP assay, EJ5-GFP reporter plasmid (pimEJ5GFP, addgene plasmid 44026) was used instead of DR-GFP reporter plasmid and the assay was performed as described for DR-GFP assay.

[4] = system: U2OS cells; assay: Immunoblotting of HR factor abundance
Procedure: FIG. 5A is a schematic diagram of the SILAC/MS experiment. FIG. 5B is a quadrant diagram of the SILAC/MS experiment. Each dot represents a different identified protein. Proteins with abundance reduced two-fold or more after ATRi treatment are shown in the upper-left corner (white quadrant). FIG. 5C is a WB analysis of U2OS cells after 8 days of chronic treatment with 5 μM of ATRi or ATMi. FIG. 5D is a time course WB analysis of U2OS cells during chronic treatment with 5 μM ATRi. FIG. 5E is a WB analysis of U2OS cells at distinct cell cycle stages. Cells were treated with 1 mM hydroxyurea (HU) or 50 ng/ml nocodazole (Noc) for 24 hours. HU treated cells were released for 2.5 hours in HU-free media. FIG. 5F is a WB analysis of U2OS cells untreated or treated for 8 days with 5 μM ATRi.
as §4, §1

[5] = system: HCT116 colon cancer cell line; assay: DR-GFP assay of HR-mediated repair; conditions: ATRi 8 days vs 2 days
Procedure: as §2, §3
(§5) For the DR-GFP assay, cells (U2OS, HCT116, hTERT RPE-1, HEK293T, HeLa, U87, T98G, A2780, 293-T-REX-E2F6 cells and SV40 large T antigen transformed hTERT RPE-1) were transfected with the mCherry plasmid or DR-GFP reporter plasmid (pDR-GFP; addgene plasmid 26475) together with a plasmid coding for I-SceI (pCBASceI; addgene plasmid 26477) or DR-GFP reporter plasmid together with an empty plasmid pCAGGS. Two days after transfection, cells were trypsinized, resuspended in PBS and then analyzed by flow cytometry using FACSAria Fusion or Accuri C6 cytometer (BD). […]

[6] = system: hTERT RPE-1 cells; assay: DR-GFP assay of HR-mediated repair; conditions: ATRi 8 days vs 2 days
Procedure: as §2, §3, §5

[7] = system: U2OS cells; assay: EJ5-GFP (NHEJ) assay; conditions: 5 μM ATRi, 8 days
Procedure: Human U2OS, HCT116, hTERT RPE-1, HEK293T, HeLa, U87, T98G, A2780, and human skin fibroblast cells (GM08398 and GM18366) were grown in DMEM media supplemented with 10% bovine calf serum, penicillin/streptomycin and non-essential amino acids. SV40 large T antigen transformed hTERT RPE-1 cells were generated by infecting hTERT RPE-1 cells with a SV40 large T antigen (SV40 LT)-expressing retrovirus and were selected using 500 μg/ml G418. The stable SV40 large T antigen transformed hTERT RPE-1 cell line was then maintained in culture media supplemented 500 μg/ml G418. […]
as §5

CS(=O)(=O)c1ccc(-c2cnc(N)c(C(=O)Nc3ccccc3)n2)cc1 [ATRi, VE-821]
Abundance of the other HR proteins monitored in CHX-treated cells [1]: did not change
Protein levels of BRCA1 in CHX-treated cells [1]: decreased
Abundance of BRCA1 (WB) [2]: did not result in major changes in the abundance of BRCA1
HR-mediated repair efficiency (DR-GFP, GFP positive cells over DMSO) ([3]; 5 μM, chronic 8 days): strikingly more severe impairment in HR-mediated repair as compared to short-term ATR inhibition
HR (DR-GFP) upon short-term ATR inhibition ([3]; short-term (2 days) ATRi): modest reduction in HR
Changes in abundance of NHEJ factors 53BP1 and PTIP (WB) ([4]; 5 μM ATRi, 8 days): minimal
Changes in protein abundance, time course (WB) ([4]; 5 μM ATRi, after 2 and 4 days): minor changes in protein abundance
Changes in protein abundance, time course (WB) ([4]; 5 μM ATRi, after 6 and 8 days): changes become more striking
Abundance of several proteins involved in HR-mediated repair (WB) ([4]; chronic ATR inhibition): severely reduced
Protein levels of RAD51 and TOPBP1 (WB) ([4]; chronic ATR inhibition, 5 μM, 8 days): reduced
HR-mediated repair efficiency (DR-GFP), chronic vs short-term treatment [5]: significantly more severe than that of short-term treatment
HR-mediated repair efficiency (DR-GFP), chronic vs short-term (2 day) treatment [6]: did not result in a striking drop in HR-mediated repair efficiency
NHEJ efficiency (EJ5-GFP) [7]: does not result in a significant change in NHEJ efficiency
